In US7183265B2, “Powdery product comprising crystalline β-maltose monohydrate, its preparation, and uses” (priority 2001, dated 2007):

How the values were obtained:
Type in all cases: physicochemical
Solidification test = test: Solidification test
Description: A sample in the aluminum cup, taken out after keeping three days in the above hygroscopicity test, was macroscopically observed. Solidification was judged from the appearance of the sample whether it was solidified or not by adsorbing moisture.

[1] = Crystallinity by powdery X-ray diffraction (method of Ruland)
Protocol: Crystallinity of powder was measured by the method of Ruland (Acta Crystallographica, Vol. 14, p. 1180, 1961) based on a powdery X-ray diffraction pattern using “[…]”, an X-ray diffractometer (Cu, Kα-ray) commercialized by Rigaku Corp., Tokyo, Japan.

[2] = Preservation stability of the powder
Protocol: An open aluminum cup containing a sample was placed in a desiccator, set at a RH of 75.2% (equilibrated with a saturated sodium chloride aqueous solution), kept at 25° C. for three days, and then weighted. Hygroscopicity was expressed with percentage (%) of the increased weight to the initial weight of the sample. A sample in the aluminum cup, taken out after keeping three days in the above hygroscopicity test, was macroscopically observed. Solidification was judged from the appearance of the sample whether it was solidified or not by adsorbing moisture.

Hygroscopicity test = settings: 25° C., RH 75.2%
Protocol: An open aluminum cup containing a sample was placed in a desiccator, set at a RH of 75.2% (equilibrated with a saturated sodium chloride aqueous solution), kept at 25° C. for three days, and then weighted. Hygroscopicity was expressed with percentage (%) of the increased weight to the initial weight of the sample.

| solidification (in words) (Solidification test) | Crystallinity (%) [1] | preservation stability (in words) [2] | hygroscopicity (in words) (Hygroscopicity test) | SMILES |
| --- | --- | --- | --- | --- |
| heavy solidification | 76.3% | unsatisfactory preservation stability | high hygroscopicity | OC[C@H]1O[C@H](O[C@H]2[C@H](O)[C@@H](O)[C@H](O)O[C@@H]2CO)[C@H](O)[C@@H](O)[C@@H]1O [No. 10, anhydrous crystalline α-maltose] |
| no substantial solidification | 82.6% |  | no hygroscopicity | OCC1OC(OC2C(CO)OC(O)C(O)C2O)C(O)C(O)C1O (stereo not drawn) [No. 9, hydrous crystalline β-maltose, reference compound] |
